Measured values as given in US20230049619A1, “SIGMA-1 RECEPTOR LIGANDS AND USES THEREOF” (UNIVERSITE DE STRASBOURG, priority 2019, published 2023).
Where a name gives a salt, the structure may show the parent alone.

Target: T1, sigma-1 receptor (Homo sapiens, UniProt Q99720)
T1 construct: incubing Jurkat cell membranes ([…] protein per tube) with [^3H](+)-pentazocine; endogenous in cells; host or cells: Jurkat cell membranes
Test: sigma-1 receptor binding assay ([3H](+)-pentazocine displacement, Jurkat cell membranes)
Conditions: tested compound 10 nM, [3H](+)-pentazocine 15 nM, 37° C., 2 hours
Description: The sigma-1 receptor binding assays were performed according to Ganapathy et al. (J Pharmacol Exp Ther 28:251-60, 1999). The sigma-1 receptor binding assay was carried out by incubing Jurkat cell membranes ([…] protein per tube) with [^3H](+)-pentazocine a selective sigma-1 radiotracer (15 nM) and a range of concentration of tested compounds, at 37° C. for 2 hours in 5 mM tris/HCl buffer (pH=7.4). The inhibition of [^3H](+)-pentazocine binding assay is mainly used to determine the inhibition constant (Ki) of potential sigma-1 receptor ligands. These assays are performed with a single concentration of [^3H](+)-pentazocine at a concentration near its KD and increasing concentrations of non-radioactive ligands.

T1 sequence (Q99720 whole entry): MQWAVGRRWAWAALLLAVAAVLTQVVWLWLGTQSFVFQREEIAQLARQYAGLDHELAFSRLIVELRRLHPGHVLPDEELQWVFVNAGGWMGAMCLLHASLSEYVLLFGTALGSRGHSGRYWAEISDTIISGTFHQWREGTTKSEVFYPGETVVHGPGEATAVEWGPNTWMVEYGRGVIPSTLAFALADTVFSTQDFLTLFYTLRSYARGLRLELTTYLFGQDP

Compound | sigma-1 receptor % inhibition 10 nM [%] | inhibition at 0.01 µM [%]
Cl.O=c1c(-c2ccccc2)ccnn1C1CCN(CC2CCCC2)CC1 [cpd 5, 2-[1-(cyclopentylmethyl)piperidin-4-yl]-4-phenyl-2,3-dihydropyridazin-3-one hydro-chloride] | 60.7 | –
O=c1c(-c2ccccc2)ccnn1C1CCN(Cc2ccccc2)CC1 [cpd 1, 2-(1-benzylpiperidin-4-yl)-4-phenylpyridazin-3(2H)-one hydrochloride] | – | 59.9
O=c1c(-c2ccccc2)ccnn1CC1CCN(Cc2ccc(Cl)cc2)CC1 [cpd 12, 2-((1-(4-chlorobenzyl)piperidin-4-yl)methyl)-4-phenylpyridazin-3(2H)-one hydrochloride] | – | 73.1
O=c1c(-c2ccccc2)ccnn1CC1CCN(CCc2ccccc2)CC1 [cpd 10, 2-((1-phenethylpiperidin-4-yl)methyl)-4-phenylpyridazin-3(2H)-one hydrochloride] | – | 29.2
O=c1c(-c2ccccc2)ccnn1CC1CCCN(Cc2ccccc2)C1 (centres unmarked) [cpd 9, 2-[(1-benzylpiperidin-3-yl)methyl]-4-phenyl-2,3-dihydropyridazin-3-one hydrochloride] | – | 38.8
O=c1cc(-c2ccccc2)cnn1CCC1CCN(Cc2ccccc2)CC1 [cpd 27, 2-(2-(1-benzylpiperidin-4-yl)ethyl)-5-phenylpyridazin-3(2H)-one hydrochloride] | – | 61.7
O=c1c(CCc2ccccc2)ccnn1C1CCN(Cc2ccccc2)CC1 [cpd 37, 2-(1-benzylpiperidin-4-yl)-4-(2-phenylethyl)-2,3-dihydropyridazin-3-one hydrochloride] | – | 90
O=c1c(-c2ccccc2)ccnn1C1CCCN(Cc2ccccc2)CC1 (centres unmarked) [cpd 6, 2-(1-benzylazepan-4-yl)-4-phenyl-2,3-dihydropyridazin-3-one hydrochloride] | – | 81.4
O=c1c(-c2ccccc2)ccnn1C1CCN(CCc2ccccc2)CC1 [cpd 3, 4-phenyl-2-[1-(2-phenylethyl)piperidin-4-yl]-2,3-dihydropyridazin-3-one hydrochloride] | – | 41.9
O=c1c(-c2ccccc2)ccnn1CC1CCN(CC(O)c2ccc(F)cc2)CC1 (centres unmarked) [cpd 23, 2-((1-(2-(4-fluorophenyl)-2-hydroxyethyl)piperidin-4-yl)methyl)-4-phenylpyridazin-3(2H)-one hydrochloride] | – | 1.3
O=c1c(-c2ccccc2)ccnn1CC1CCN(Cc2ccc(O)cc2)CC1 [cpd 18, 2-((1-(4-hydroxybenzyl)piperidin-4-yl)methyl)-4-phenylpyridazin-3(2H)-one hydrochloride] | – | 16.7
CCCN1CCC(Cn2nccc(-c3ccccc3)c2=O)CC1 [cpd 11, 4-phenyl-2-((1-propylpiperidin-4-yl)methyl)pyridazin-3(2H)-one hydrochloride] | – | 3.9
O=c1c(N2CCOCC2)ccnn1CC1CCN(Cc2ccccc2)CC1 [cpd 40, 2-((1-benzylpiperidin-4-yl)methyl)-4-morpholinopyridazin-3(2H)-one hydrochloride] | – | 8.2
O=c1cc(-c2ccccc2)cnn1C1CCN(Cc2ccccc2)CC1 [cpd 2, 2-(1-benzylpiperidin-4-yl)-5-phenylpyridazin-3(2H)-one hydrochloride] | – | 86

Same assay, conditions: tested compound 100 nM, [3H](+)-pentazocine 15 nM, 37° C., 2 hours

Compound | inhibition at 0.1 µM [%] | sigma-1 receptor % inhibition 100 nM [%]
O=c1c(-c2ccccc2)ccnn1C1CCN(Cc2ccccc2)CC1 [cpd 1, 2-(1-benzylpiperidin-4-yl)-4-phenylpyridazin-3(2H)-one hydrochloride] | 97.1 | –
Cl.O=c1c(-c2ccc(Cl)cc2)ccnn1C1CCN(Cc2ccccc2)CC1 [cpd 32] | – | 91.1
O=c1c(-c2ccc(C(F)(F)F)cc2)ccnn1C1CCN(Cc2ccccc2)CC1 [cpd 31, 2-(1-benzylpiperidin-4-yl)-4-[4-(trifluoromethyl)phenyl]-2,3-dihydropyridazin-3-one hydro chloride] | 80 | –
O=c1c(CCc2ccccc2)ccnn1C1CCN(Cc2ccccc2)CC1 [cpd 37, 2-(1-benzylpiperidin-4-yl)-4-(2-phenylethyl)-2,3-dihydropyridazin-3-one hydrochloride] | 100 | –
COc1ccc(-c2ccnn(C3CCN(Cc4ccccc4)CC3)c2=O)cc1 [cpd 30, 2-(1-benzylpiperidin-4-yl)-4-(4-methoxyphenyl)pyridazin-3(2H)-one hydrochloride] | 75.8 | –
O=c1cc(-c2ccccc2)cnn1C1CCN(Cc2ccccc2)CC1 [cpd 2, 2-(1-benzylpiperidin-4-yl)-5-phenylpyridazin-3(2H)-one hydrochloride] | 90 | –
